Results on 1 substance are retold here after article PMC10411625, “Rationally designed stapled peptides allosterically inhibit PTBP1–RNA-binding” (Chemical Science, 2023).

Numbering of substitutions follows the chain as printed. {FAM} = fluorescein (FAM) label

The target in data set [1] is T1, PTBP1 RRM1Δα3 (RRM1 lacking the α3-helix) (Homo sapiens, UniProt P26599).
T1 construct: (G41-S140); His tag (N); made in house; host or cells: E. coli BL21 DE3 RIL
The data set is described as follows: Fluorescence polarization binding of FAM-RNA to PTBP1 RRM1Δα3. The note with it: FP, 5 nM FAM-labelled RNA, 20 mM sodium phosphate pH 8.0, 50 mM NaCl, 0.001% Tween20, 20 °C, 30 min. From the text: (§1) To confirm the role of the α3-helix described by the Allain group we performed fluorescence polarization (FP) experiments with various PTBP1 protein constructs and two RNA sequences.[25] The first set of proteins contained either the single RRM1, RRM1 lacking the α3-helix (RRM1Δα3) or RRM1–L151G (Fig. 1A and C). The L151G mutation was previously described by the Allain group to break the fold of the helix and reduce RNA-binding 2.3 fold as measured by ITC.[25] As tracer in the FP experiments, we used a FAM-labelled short RNA (RNA-1) with a single PTBP1 binding site (UCUU) which can accommodate a single RRM (Fig. 1B). […] The L151G mutation reduced binding 3.6-fold which is somewhat higher than what was observed previously but in the same range. […] To see whether the effect of the helix was also present in larger constructs we measured the affinity of RRM1 and 2 combined (RRM12) as well as the RRM12–L151G mutant. […]
(§2) size exclusion chromatography (Superdex 75 16/60 or 26/60) with SEC buffer (50 mM Tris, 200 mM NaCl). Protein homogeneity was assessed by the size exclusion chromatogram and purity was checked by SDS-PAGE analysis to be >= 90%.
(§3) The gene encoding for SRSF1-RRM12 (1-195) was subcloned into pOPIN-His expression vector and expressed in E. coli BL21 (DE3). […]
(§4) Fluorescence polarization assay with PTBP1 […]
(Fluorescence polarisation rises when a labelled molecule tumbles more slowly, as on binding a larger partner.)

In data set [2] the target is T2, PTBP1 RRM1 (MBP-RRM1, G41-A163) (Homo sapiens, UniProt P26599).
T2 construct: (G41-A163); His tag; made in house; host or cells: E. coli BL21 DE3 RIL
T2 sequence (P26599 41-163): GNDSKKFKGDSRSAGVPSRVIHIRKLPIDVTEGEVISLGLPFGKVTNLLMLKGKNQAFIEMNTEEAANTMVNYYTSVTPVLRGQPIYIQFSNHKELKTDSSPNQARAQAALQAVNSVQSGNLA
The experiment in a line: Fluorescence polarization binding of FAM-RNA to PTBP1 RRM1. The conditions noted are these: FP, 5 nM FAM-labelled RNA, 20 mM sodium phosphate pH 8.0, 50 mM NaCl, 0.001% Tween20, 20 °C, 30 min.
From the text: as §1, §2, §3, §4

The target in data set [3] is T3, PTBP1 RRM12-L151G (Homo sapiens, UniProt P26599, L151G).
T3 construct: (P57-V265); MBP (from pMAL vector); His tag; made in house; host or cells: E. coli BL21 DE3 RIL
T3 sequence (P26599 57-265 L151G): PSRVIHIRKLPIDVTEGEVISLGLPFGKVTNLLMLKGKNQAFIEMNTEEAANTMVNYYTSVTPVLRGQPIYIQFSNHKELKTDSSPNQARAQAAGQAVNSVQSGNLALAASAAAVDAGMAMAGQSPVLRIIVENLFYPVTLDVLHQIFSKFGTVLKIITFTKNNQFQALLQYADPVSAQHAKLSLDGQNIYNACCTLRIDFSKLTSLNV
The experiment in a line: Fluorescence polarization binding of FAM-RNA to PTBP1 RRM12-L151G.
From the text: as §1, §2, §3, §4

Data set [4] has as its target T4, PTBP1 RRM2 (MBP-RRM2, M177-D284) (Homo sapiens, UniProt P26599).
T4 construct: (M177- D284); His tag; made in house; host or cells: E. coli BL21 DE3 RIL
The data set is described as follows: Fluorescence polarization binding of FAM-RNA to PTBP1 RRM2. The conditions noted are these: FP, 5 nM FAM-labelled RNA, 20 mM sodium phosphate pH 8.0, 50 mM NaCl, 0.001% Tween20, 20 °C, 30 min.
From the text: as §1, §2, §3, §4

Data set [5] has as its target T5, PTBP1 RRM1-L151G (Homo sapiens, UniProt P26599, L151G).
T5 construct: (G41-A163,; His tag; made in house; host or cells: E. coli BL21 DE3 RIL
The data set is described as follows: Fluorescence polarization binding of FAM-RNA to PTBP1 RRM1-L151G.
From the text: as §1, §2, §3, §4

The target of data set [6] is T6, PTBP1 RRM12 (P57-V265) (Homo sapiens, UniProt P26599).
T6 construct: (P57-V265); MBP (from pMAL vector); His tag; made in house; host or cells: E. coli BL21 DE3 RIL
T6 sequence (P26599 57-265): T3 sequence (P26599 57-265 L151G) with G95L
The experiment in a line: Fluorescence polarization binding of FAM-RNA to PTBP1 RRM12. The conditions noted are these: FP, 5 nM FAM-labelled RNA, 20 mM sodium phosphate pH 8.0, 50 mM NaCl, 0.001% Tween20, 20 °C, 30 min.
From the text: as §1, §2, §3, §4

[7] abbreviates: FP, 5 nM FAM-labelled RNA, 20 mM sodium phosphate pH 8.0, 50 mM NaCl, 0.001% Tween20, 20 °C, 30 min.

T5 sequence (P26599 41-163 L151G): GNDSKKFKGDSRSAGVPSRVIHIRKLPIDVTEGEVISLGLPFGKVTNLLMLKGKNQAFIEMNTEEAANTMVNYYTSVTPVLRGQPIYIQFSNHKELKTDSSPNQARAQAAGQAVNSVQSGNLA
T4 sequence (P26599 177-284): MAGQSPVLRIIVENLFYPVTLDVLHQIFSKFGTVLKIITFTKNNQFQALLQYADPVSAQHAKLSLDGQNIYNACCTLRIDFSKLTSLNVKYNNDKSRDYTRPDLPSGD

On to “RNA-2: FAM-AUUUUUCCAUCUUUGUAUC, sequence of microRNA miR-29b-2, two poly(U) motifs (RNA, 5' {FAM}, backbone not given here)”, for which the Kd in data set [1] was 6.45 ± 1.36 µM; in data set [2], 0.09 ± 0.023 µM; in data set [3] (setting [7]), 0.042 ± 0.001 µM; in data set [4], 0.721 ± 0.308 µM; in data set [5] (setting [7]) it was 0.218 ± 0.011 µM; in data set [6], 0.017 ± 0.002 µM. Besides, the “reduction of RNA affinity by L151G mutation, RRM12-L151G versus RRM12” value in data set [3] (from FP KD values) is recorded as 2.5 fold. In data set [5] (from FP KD values), the “reduction of RNA affinity by L151G mutation, RRM1-L151G versus RRM1” value was found to be 2.4 fold.

Usually Kd stands for the concentration at which binding is half-saturated.
